Where “and” joins values, the source holds several entries; their conditions need not be identical. Equal entries are not always repeated. Inconclusive results and toxic doses are left out.
Test system: BDF1 mice, P388 leukemia ip, median survival T/C
Test: NCI In Vivo Anticancer Drug Screen. Data for tumor model P388 Leukemia (intraperitoneal) in B6D2F1 (BDF1) mice
Details: endpoint: median survival time, higher = longer survival
Summary of the method: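 In tumour-bearing mice, survival after compound treatment is set against the vehicle group and given as a quotient.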

[1] = dose: 100.0 mg/kg/injection, schedule: Q04DX003 (ip), vehicle: Klucel (hydroxypropylcellulose) (HPC)
[2] = dose: 100.0 mg/kg/injection, schedule: Q04DX003 (ip), vehicle: saline
[3] = dose: 200.0 mg/kg/injection, schedule: Q04DX003 (ip), vehicle: saline
[4] = dose: 100.0 mg/kg/injection, schedule: Q01DX009 (ip), vehicle: saline with Tween-80
[5] = dose: 50.0 mg/kg/injection, schedule: Q01DX009 (ip), vehicle: saline with Tween-80
[6] = dose: 200.0 mg/kg/injection, schedule: Q01DX009 (ip), vehicle: saline with Tween-80
[7] = dose: 12.5 mg/kg/injection, schedule: Q01DX009 (ip), vehicle: saline with Tween-80
[8] = dose: 25.0 mg/kg/injection, schedule: Q01DX009 (ip), vehicle: saline with Tween-80
[9] = dose: 100.0 mg/kg/injection, schedule: Q04DX003 (ip), vehicle: saline with Tween-80
[10] = dose: 200.0 mg/kg/injection, schedule: Q04DX003 (ip), vehicle: saline with Tween-80
[11] = dose: 400.0 mg/kg/injection, schedule: Q04DX003 (ip), vehicle: saline with Tween-80
[12] = dose: 50.0 mg/kg/injection, schedule: Q04DX003 (ip), vehicle: saline with Tween-80

SMILES: CCCCCCCCCCCS(=O)(=O)C(CCOS(C)(=O)=O)COS(C)(=O)=O (stereo not drawn)
- T/C [1]: 95 % of control
- T/C (dose: 200.0 mg/kg/injection, schedule: Q04DX003 (ip), vehicle: Klucel (hydroxypropylcellulose) (HPC)): 100 % of control
- T/C (dose: 400.0 mg/kg/injection, schedule: Q04DX003 (ip), vehicle: Klucel (hydroxypropylcellulose) (HPC)): 100 % of control

SMILES: NNC(=O)NC(=O)NN
- T/C (dose: 50.0 mg/kg/injection, schedule: Q01DX009 (ip), vehicle: saline): 104 % of control
- T/C [2]: 113 % of control
- T/C [3]: 113 % of control

SMILES: O=C(NC(=O)c1c(F)cccc1F)Nc1ccc(Cl)nc1
- T/C [4]: 91 % of control

SMILES: CC12C=CC(=O)C=C1CCC1C3CCC(O)(C(=O)CO)C3(C)CC(O)C12F (stereo not drawn)
- T/C (dose: 25.0 mg/kg/injection, schedule: Q04DX003 (sc), vehicle: steriod suspending solution): 113 % of control
- T/C (dose: 50.0 mg/kg/injection, schedule: Q04DX003 (sc), vehicle: steriod suspending solution): 86 % of control
- T/C (dose: 56.25 mg/kg/injection, schedule: Q01DX009 (sc), vehicle: steriod suspending solution): 100 % of control
- T/C (dose: 100.0 mg/kg/injection, schedule: Q04DX003 (sc), vehicle: steriod suspending solution): 86 % of control
- T/C (dose: 112.5 mg/kg/injection, schedule: Q01DX009 (sc), vehicle: steriod suspending solution): 118 % of control
- T/C (dose: 150.0 mg/kg/injection, schedule: Q04DX003 (sc), vehicle: steriod suspending solution): 104 % of control
- T/C (dose: 225.0 mg/kg/injection, schedule: Q01DX009 (sc), vehicle: steriod suspending solution): 104 % of control
- T/C (dose: 225.0 mg/kg/injection, schedule: Q04DX003 (sc), vehicle: steriod suspending solution): 90 % of control

SMILES: CC(=O)OCC(=O)[C@@]1(O)[C@H](C)C[C@H]2[C@@H]3C=C(C)C4=Cc5c(cnn5-c5ccc(F)cc5)C[C@]4(C)[C@H]3[C@@H](O)C[C@@]21C
- T/C (dose: 0.19 mg/kg/injection, schedule: Q01DX009 (sc), vehicle: steriod suspending solution): 120 % of control
- T/C (dose: 0.39 mg/kg/injection, schedule: Q01DX009 (sc), vehicle: steriod suspending solution): 110 % of control
- T/C (dose: 0.58 mg/kg/injection, schedule: Q04DX003 (sc), vehicle: steriod suspending solution): 118 % of control
- T/C (dose: 0.78 mg/kg/injection, schedule: Q01DX009 (sc), vehicle: steriod suspending solution): 90 % of control
- T/C (dose: 1.17 mg/kg/injection, schedule: Q04DX003 (sc), vehicle: steriod suspending solution): 118 % of control
- T/C (dose: 2.34 mg/kg/injection, schedule: Q04DX003 (sc), vehicle: steriod suspending solution): 118 % of control
- T/C (dose: 3.4 mg/kg/injection, schedule: Q04DX003 (sc), vehicle: steriod suspending solution): 100 % of control
- T/C (dose: 5.3 mg/kg/injection, schedule: Q04DX003 (sc), vehicle: steriod suspending solution): 90 % of control
- T/C (dose: 6.0 mg/kg/injection, schedule: Q04DX003 (ip), vehicle: Klucel (hydroxypropylcellulose) (HPC)): 105 % of control
- T/C (dose: 12.0 mg/kg/injection, schedule: Q04DX003 (ip), vehicle: Klucel (hydroxypropylcellulose) (HPC)): 105 % of control
- T/C (dose: 25.0 mg/kg/injection, schedule: Q04DX003 (ip), vehicle: Klucel (hydroxypropylcellulose) (HPC)): 90 % of control
- T/C [1]: 90 % of control

SMILES: Nc1nc(Cl)c(C=O)c(Cl)n1
- T/C [5]: 241 % of control

SMILES: O=c1c2ccccc2[nH]c2cc3c(=O)c4ccccc4[nH]c3cc12
- T/C [5]: 99 % of control
- T/C [4]: 95 % of control
- T/C [6]: 93 % of control

SMILES: O/N=c1\cc(-c2ccccc2)oc2ccccc12
- T/C (dose: 3.13 mg/kg/injection, schedule: Q01DX009 (ip), vehicle: saline with Tween-80): 95 % of control
- T/C (dose: 6.25 mg/kg/injection, schedule: Q01DX009 (ip), vehicle: saline with Tween-80): 95 % of control
- T/C [7]: 112 % of control
- T/C [8]: 123 % of control

SMILES: CC(C)(C)c1ccc(Sc2cccc3c2C(=O)c2c(Cl)cccc2C3=O)cc1
- T/C [9]: 90 % of control
- T/C [10]: 88 % of control
- T/C [11]: 92 % of control

SMILES: O=C(O)c1cc(Br)c(Br)s1
- T/C [12]: 91 % of control
- T/C [9]: 100 % of control
- T/C [10]: 112 % of control

SMILES: CCOC(=O)CC(C)=O.[Cu+2]
- T/C (dose: 6.25 mg/kg/injection, schedule: Q01DX009 (ip), vehicle: Klucel (hydroxypropylcellulose) (HPC)): 100 % of control
- T/C (dose: 12.5 mg/kg/injection, schedule: Q01DX009 (ip), vehicle: Klucel (hydroxypropylcellulose) (HPC)): 90 % of control

SMILES: CCCNC(C)(C)C(SS)c1ccc(Cl)cc1 (stereo not drawn)
- T/C [12]: 109 % of control
- T/C [9]: 104 % of control
- T/C [10]: 109 % of control

SMILES: Cc1nc2ccc3nc(N)nc(N)c3c2nc1C
- T/C (dose: 50.0 mg/kg/injection, schedule: Q01DX001 (ip), vehicle: saline with Tween-80): 104 % of control
- T/C (dose: 100.0 mg/kg/injection, schedule: Q01DX001 (ip), vehicle: saline with Tween-80): 101 % of control
- T/C (dose: 200.0 mg/kg/injection, schedule: Q01DX001 (ip), vehicle: saline with Tween-80): 111 % of control

SMILES: CCCCCCCCOc1cc2c(c(OC(C)=O)c1)-c1ccccc1CC2
- T/C [9]: 97 % of control
- T/C [10]: 99 % of control
- T/C [11]: 99 % of control

SMILES: COn1nnc2c([N+](=O)[O-])cccc21
- T/C [5]: 109 % of control

SMILES: CC(C)(C)OOC(=O)c1ccccc1O
- T/C (dose: 12.5 mg/kg/injection, schedule: Q04DX003 (ip), vehicle: other): 102 % of control
- T/C (dose: 25.0 mg/kg/injection, schedule: Q04DX003 (ip), vehicle: other): 101 % of control
- T/C [5]: 122 % of control
- T/C (dose: 50.0 mg/kg/injection, schedule: Q04DX003 (ip), vehicle: other): 101 % of control
- T/C (dose: 100.0 mg/kg/injection, schedule: Q04DX003 (ip), vehicle: other): 118 % of control

SMILES: Cc1ccc(C[n+]2cccc3c([N+](=O)[O-])cccc32)cc1
- T/C [7]: 108 % of control
- T/C [8]: 103 % of control
- T/C [5]: 113 % of control

SMILES: COC(=O)C(I)C(OC)c1ccccc1 (stereo not drawn)
- T/C [4]: 100 % of control
- T/C [6]: 105 % of control
- T/C (dose: 400.0 mg/kg/injection, schedule: Q01DX009 (ip), vehicle: saline with Tween-80): 110 % of control

SMILES: C1=Cc2c3c(c4c(c2C1)C=CC4)C=CC3
- T/C [5]: 91 % of control
- T/C [4]: 93 % of control
- T/C [6]: 95 % of control

SMILES: O=[N+]([O-])c1ccc(S(=O)(=O)c2ccccc2)c2c1no[n+]2[O-]
- T/C (dose: 10.0 mg/kg/injection, schedule: Q01DX009 (ip), vehicle: saline with Tween-80): 109 % of control
- T/C (dose: 20.0 mg/kg/injection, schedule: Q01DX009 (ip), vehicle: saline with Tween-80): 106 % of control
- T/C (dose: 40.0 mg/kg/injection, schedule: Q01DX009 (ip), vehicle: saline with Tween-80): 106 % of control

SMILES: c1cc[n+](CCSCCSCC[n+]2ccccc2)cc1
- T/C (dose: 1.56 mg/kg/injection, schedule: Q01DX009 (ip), vehicle: saline): 120 % of control
- T/C (dose: 2.3 mg/kg/injection, schedule: Q04DX003 (ip), vehicle: saline): 122 % of control
- T/C (dose: 3.0 mg/kg/injection, schedule: Q04DX003 (ip), vehicle: saline): 104 % of control and 113 % of control
- T/C (dose: 3.12 mg/kg/injection, schedule: Q01DX009 (ip), vehicle: saline): 105 % of control
- T/C (dose: 4.6 mg/kg/injection, schedule: Q04DX003 (ip), vehicle: saline): 100 % of control and 109 % of control
- T/C (dose: 6.25 mg/kg/injection, schedule: Q01DX009 (ip), vehicle: saline): 105 % of control
- T/C (dose: 6.9 mg/kg/injection, schedule: Q04DX003 (ip), vehicle: saline): 109 % of control
- T/C (dose: 9.2 mg/kg/injection, schedule: Q01DX009 (ip), vehicle: saline): 88 % of control
- T/C (dose: 9.2 mg/kg/injection, schedule: Q04DX003 (ip), vehicle: saline): 100 % of control
- T/C (dose: 13.0 mg/kg/injection, schedule: Q04DX003 (ip), vehicle: saline): 100 % of control

SMILES: Cc1cc2cc3c(=O)[nH]c(=O)nc-3n(CC(O)C(O)C(O)COP(=O)(O)O)c2cc1C (stereo not drawn)
- T/C (dose: 66.0 mg/kg/injection, schedule: Q01DX009 (ip), vehicle: saline): 100 % of control
- T/C (dose: 100.0 mg/kg/injection, schedule: Q01DX009 (ip), vehicle: saline): 95 % of control and 100 % of control
- T/C [2]: 100 % of control
- T/C [3]: 113 % of control
- T/C (dose: 400.0 mg/kg/injection, schedule: Q04DX003 (ip), vehicle: saline): 100 % of control

SMILES: CCOC(=O)Cn1ccc(=O)[nH]c1=O
- T/C (dose: 75.0 mg/kg/injection, schedule: Q04DX003 (ip), vehicle: saline): 100 % of control
- T/C (dose: 150.0 mg/kg/injection, schedule: Q04DX003 (ip), vehicle: saline): 100 % of control
- T/C (dose: 300.0 mg/kg/injection, schedule: Q04DX003 (ip), vehicle: saline): 100 % of control

Source: PubChem BioAssay AID328 (DTP/NCI, 2004)
